{
  "source": "patent US20190264255A1",
  "about": "“Competition Test of an Enzyme Substrate with Internal Compensation for Enzyme Activity” (TECHNISCHE UNIVERSITÄT DARMSTADT, priority 2016, published 2019)",
  "biological_target": "Thrombin (Homo sapiens, UniProt P00734)",
  "assay": "Thrombin cleavage of Z-Gly-Pro-Arg-p-phenylenediamine, photometric detection by oxidative coupling with a-naphthol",
  "type": "biochemical",
  "details": "pH 8; buffer as for fluorescence measurement + 2% Triton X100; substrate cleavage by thrombin",
  "method": "Buffer, substrate and fibrinogen were placed in a 96-well microtiter plate. The enzyme was injected with the injector attached to the TECAN reader. The experimental conditions are set out in the following information. • Substrate conc. Z-Gly-Pro-Arg-aminomethylcoumarin 10 mM in DMSO • Substrate dil. Z-Gly-Pro-Arg-aminomethylcoumarin 1 mM in DMSO • Test buffer 50 mM Tris, 250 mM NaCl, 0.1% PEG6000, pH 8.0 • Haemocomplettan 100 mg/ml dist. water≅44 mg/ml of fibrinogen • Enzyme Solution 1 U/ml in 10 mM HEPES, 0.1% bovine serum albumin, pH 6.4 • Temperature 30 C\nThrombin also cleaves Z-Gly-Pro-Arg-p-phenylenediamine. The product could be detected by oxidative coupling with a-naphthol in the presence of hexacyanoferrate III. The result was a violet dye with Amax=565 nm. The Michaelis-Menten constant at pH 8 (buffer as for fluorescence measurement+2% Triton X100) was 6 μM.",
  "data": [
    {"substance": "Z-Gly-Pro-Arg-p-phenylenediamine", "values": [
      {"measurement": "Michaelis-Menten constant", "result": 6, "unit": "µM"}
    ]}
  ]
}
